Assay results as given in article PMC9775322, “An Integrated Analysis of Mechanistic Insights into Biomolecular Interactions and Molecular Dynamics of Bio-Inspired Cu(II) and Zn(II) Complexes towards DNA/BSA/SARS-CoV-2 3CL^pro by Molecular Docking-Based Virtual Screening and FRET Detection” (Biomolecules, 2022).
pIC50: −log10 of the molar value.

Columns and labels:
CT-DNA = assay: DNA cleavage by agarose gel electrophoresis in presence of H2O2; type: biochemical, calf; settings: in the presence of H2O2, agarose gel
Text: The DNA nuclease characteristics were scrutinized of all substances along with DNA containing H2O2 and Tris-HCl buffer solution with a pH of 7.4 [19]. The gel layer was discarded from the tank solution after the experiment was finished and put in front of a UV transilluminator, and each band lane was also scrutinized with the control (DNA + H2O2).
2.1. Resources and Techniques
We purchased the essential chemical substances and other reagents from Sigma Aldrich repository. Numerous analytical and spectral measurements were utilized to describe all the test compounds, including Bruker 300 MHz 1H NMR spectrometer, or Avance III HD Nanobay 400 MHz, Shimadzu FT-IR spectrometer, Shimadzu UV-Vis 1800, Varian E112 EPR spectrometer, Bruker Daltonics ESI-MS 3000 or Bruker Compact qTOFMS coupled to an LC system and (Varian Inc, USA, 410 proStar binary LC with 500 MS, IT, and PDA detectors, or Thermo Ultimate 3000 with PDA), Bruker AXS KAPPA APEX-2 or D8 ADVANCE diffractometers (SCXRD) and other analytical techniques. The further details were encapsulated in our previous reports.
2.2. DNA/BSA interaction studies
2.2.1. […]
After the completion of the experiment, the gel layer was taken out of the tank solution and exposed to a UV transilluminator. All band lanes were evaluated and compared to the control (DNA+H2O2) using bromophenol blue, […] is useful for visually analyzing the migrated band lanes for the degree of DNA cleavage. […]
By increasing the concentration of DNA (0 –50 μM), electronic absorption titrations were performed at the fixed concentration (50 μM) of all test compounds in aqueous media at room temperature. […] Using the molar extinction coefficient (6600 M −1 cm−1) at 260 nm, it was also possible to measure the DNA concentration per nucleotide and polynucleotide, denoting that the DNA was sufficiently free of protein by the ratio of absorbance at 260 and 280 nm of roughly 1.8 –1.9 [21, 22]. When raising the concentration of DNA in compound solution, up to the point of completely binding, the decrease in absorbance intensity was carefully observed.

[1] = Hydroxyl radical scavenging assay; type: biochemical; settings: 230 nm
Candida albicans = assay: Agar disc diffusion antifungal test; settings: for diameter of clear zone inhibition / Inhibition %: I; for diameter of clear zone inhibition: 20 µL of 100 µM on 6 mm disc, Control (DMSO) = 6 mm; for Inhibition %: (T–C)/T × 100

SMILES	DNA cleavage (chemical nuclease activity) (CT-DNA)	% Inhibition, hydroxyl radical ([1]; 40 µM)	% Inhibition, hydroxyl radical ([1]; 80 µM)	% Inhibition, hydroxyl radical ([1]; 120 µM)	% Inhibition, hydroxyl radical ([1]; 160 µM)	% Inhibition, hydroxyl radical ([1]; 200 µM)	% Inhibition, hydroxyl radical ([1]; 240 µM)	pIC50 ([1]; read-out: IC50, hydroxyl radical inhibition)	diameter of clear zone inhibition (Candida albicans)	Inhibition % (Candida albicans)	zone of inhibition at 100 µM (Candida albicans; read-out: diameter of clear zone inhibition)
[Cu+2].[O-]c1ccccc1N=Cc1ccc(N2CCOCC2)cc1.[O-]c1ccccc1N=Cc1ccc(N2CCOCC2)cc1.c1cnc2c(c1)ccc1cccnc12 [(1b), [Cu^II(L)2(phen)]]	complete DNA cleavage	09.94%	18.86%	32.85%	39.84%	51.93%	62.05%	3.70	11 mm	45%	
[O-]c1ccccc1N=Cc1ccc(N2CCOCC2)cc1.[O-]c1ccccc1N=Cc1ccc(N2CCOCC2)cc1.[Zn+2].c1cnc2c(c1)ccc1cccnc12 [(2b), [Zn^II(L)2(phen)]]	partially cleaves DNA	08.33%	17.12%	27.05%	36.68%	47.03%	57.83%		10 mm	40%	
Oc1ccccc1N=Cc1ccc(N2CCOCC2)cc1 [(HL), 2-(4-morpholinobenzylideneamino)phenol]	No discernible DNA cleavage	07.26%	14.43%	25.52%	33.86%	40.73%	50.68%			40%	10 mm
